Measured values taken from US11214803B2, “Modulators of YAP1 expression” (Ionis Pharmaceuticals, Inc., priority 2019, dated 2022).
Strand notation (5' to 3'): a small letter for the sugar, then the base; units joined by * are phosphorothioate-linked, units joined directly phosphodiester-linked; [ ] holds rarer units or linkages, { } end groups; capitals alone tell only the bases. k = constrained ethyl (cEt); [5mC] = 5-methylcytosine; d = 2'-deoxy (DNA)

System: Yap1 mRNA
Assay: Antisense inhibition of human Yap1 in A-431 cells by cEt gapmers, single dose (Example 3, RTS36584)
Format: cell-based
Conditions: Table 8; A-431 cells, 5,000 cells per well, free uptake, 2,000 nM, approximately 48 hours; RTS36584; normalized to RIBOGREEN; Yap1 mRNA relative to untreated control cells
How it was run: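 Values are % untreated control: Yap1 mRNA by quantitative RT-PCR (RTS36584), normalized to total RNA by RiboGreen. Before RNA isolation, 5,000 A-431 cells per well were exposed ~48 h to 2,000 nM 16-mer cEt gapmer, delivered without transfection reagent.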

Going from “958422 (antisense kT*kT*kT*d[5mC]*dT*dT*dA*dA*d[5mC]*d[5mC]*dA*dG*d[5mC]*kG*kG*kA) [Compound 958422]” to “958400 (antisense kT*kT*kG*dA*d[5mC]*d[5mC]*dA*dA*d[5mC]*dT*dA*d[5mC]*dT*kT*kG*kA) [Compound 958400]”, the “YAP1 (% UTC)” value rises from 15 % UTC to 26 % UTC.

Same assay, conditions: Table 9; A-431 cells, 5,000 cells per well, free uptake, 2,000 nM, approximately 48 hours; RTS36584; normalized to RIBOGREEN; Yap1 mRNA relative to untreated control cells

Going from “958621 (antisense kA*kA*k[5mC]*dG*dA*dG*dG*dG*dT*d[5mC]*dA*dA*dG*k[5mC]*k[5mC]*kT) [Compound 958621]” to “958601 (k[5mC]*k[5mC]*kT*dT*dT*dA*dA*dA*dG*dG*d[5mC]*dA*d[5mC]*kT*kA*k[5mC]; antisense) [Compound 958601]”, the “YAP1 (% UTC)” value falls from 29 % UTC to 17 % UTC.

First: 958626 (antisense kT*kG*kG*dG*d[5mC]*dA*dA*dA*dG*dT*dT*d[5mC]*d[5mC]*kT*kA*kT) [Compound 958626]
Second: 958681 (kA*kA*kT*dT*dA*dA*d[5mC]*dA*d[5mC]*d[5mC]*dT*dG*dA*kG*k[5mC]*kT; antisense) [Compound 958681]
The “YAP1 (% UTC)” value of the first is higher: 158 % UTC for the first, 84 % UTC for the second.

Going from “958606 (antisense kT*k[5mC]*k[5mC]*dA*d[5mC]*d[5mC]*dT*dG*dA*dG*d[5mC]*dA*d[5mC]*kT*k[5mC]*kA) [Compound 958606]” to “958571 (k[5mC]*kA*kA*d[5mC]*dA*dA*d[5mC]*dA*dT*dG*d[5mC]*dT*dA*kT*kG*kT; antisense) [Compound 958571]”, the “YAP1 (% UTC)” value rises from 31 % UTC to 43 % UTC.

Same assay, conditions: Table 10; A-431 cells, 5,000 cells per well, free uptake, 2,000 nM oligonucleotide, approx. 48 hours; primer probe set RTS36584; Yap1 mRNA normalized to RIBOGREEN, percent of untreated control

First: 958452 (antisense k[5mC]*kT*k[5mC]*d[5mC]*dA*dG*dG*dT*d[5mC]*dG*dG*dT*d[5mC]*kT*k[5mC]*k[5mC]) [Compound 958452]
Second: 958482 (antisense kT*k[5mC]*kT*dG*dT*dA*dT*dT*dA*dG*d[5mC]*d[5mC]*dT*kG*kA*kA) [Compound 958482]
The “YAP1 (% UTC)” value of the first is higher: 26 % UTC for the first, 10 % UTC for the second.

Going from “958817 (kT*kG*k[5mC]*d[5mC]*dA*dG*dG*dT*dA*dA*dG*d[5mC]*d[5mC]*kA*k[5mC]*kA; antisense) [Compound 958817]” to “958527 (kG*kT*kA*dA*dG*dT*dA*dA*dG*dA*dA*d[5mC]*dA*kA*kT*k[5mC]; antisense) [Compound 958527]”, the “YAP1 (% UTC)” value falls from 30 % UTC to 4 % UTC.

“958567 (kT*k[5mC]*kA*dA*d[5mC]*d[5mC]*dT*dA*dT*dG*dA*dA*d[5mC]*kT*kA*kT; antisense) [Compound 958567]” was tested, and the “YAP1 (% UTC)” value was 3 % UTC.

Same assay, conditions: Table 11; A-431 cells, 5,000 cells per well, free uptake, 2,000 nM oligonucleotide, approx. 48 hours; primer probe set RTS36584; Yap1 mRNA normalized to RIBOGREEN, percent of untreated control

Compared with “958563 (kA*kG*k[5mC]*dT*dT*dT*dT*dG*d[5mC]*d[5mC]*dA*dG*dG*kA*kG*kA; antisense) [Compound 958563]”, “958808 (kA*kG*k[5mC]*dG*dA*dT*dT*dG*dG*d[5mC]*d[5mC]*dT*d[5mC]*k[5mC]*k[5mC]*kA; antisense) [Compound 958808]” is higher in “YAP1 (% UTC)” value: 3 % UTC for the first, 59 % UTC for the second.

Compared with “958458 (antisense kG*kT*kT*d[5mC]*dA*dT*d[5mC]*dT*dG*dG*dG*dA*d[5mC]*kA*kG*k[5mC]) [Compound 958458]”, “958558 (kT*kT*k[5mC]*dA*d[5mC]*dA*dA*d[5mC]*d[5mC]*dA*dA*d[5mC]*dT*kA*kT*kT; antisense) [Compound 958558]” is lower in “YAP1 (% UTC)” value: 12 % UTC for the first, 9 % UTC for the second.

Same assay, conditions: Table 12; A-431 cells, 5,000 cells per well, free uptake, 2,000 nM modified oligonucleotide, approx. 48 hours; RTS36584; normalized to RIBOGREEN; Yap1 mRNA relative to untreated control cells

Going from “958634 (antisense kT*k[5mC]*k[5mC]*dT*dT*dA*dA*d[5mC]*d[5mC]*d[5mC]*dG*dG*dG*kT*kT*kT) [Compound 958634]” to “958539 (kT*k[5mC]*kT*dA*dT*d[5mC]*d[5mC]*dA*dG*dG*dG*dT*d[5mC]*kA*kA*kT; antisense) [Compound 958539]”, the “YAP1 (% UTC)” value falls from 61 % UTC to 11 % UTC.

Same assay, conditions: Table 13; A-431 cells, 5,000 cells per well, free uptake, 2,000 nM modified oligonucleotide, approx. 48 hours; RTS36584; normalized to RIBOGREEN; Yap1 mRNA relative to untreated control cells

Going from “958700 (antisense k[5mC]*kT*kA*dA*dT*dA*dT*dA*dG*dA*d[5mC]*dT*dA*k[5mC]*kT*k[5mC]) [Compound 958700]” to “958785 (antisense kG*k[5mC]*kA*dA*dT*d[5mC]*d[5mC]*dA*d[5mC]*dA*dA*dT*dT*k[5mC]*k[5mC]*kA) [Compound 958785]”, the “YAP1 (% UTC)” value falls from 55 % UTC to 2 % UTC.

Compared with “958440 (antisense kT*kG*k[5mC]*dG*d[5mC]*d[5mC]*d[5mC]*d[5mC]*dG*dG*d[5mC]*dT*d[5mC]*k[5mC]*kA*k[5mC]) [Compound 958440]”, “958480 (antisense kA*kA*k[5mC]*dT*dG*dG*d[5mC]*dT*dT*dA*dT*dG*dG*kA*kA*kA) [Compound 958480]” is lower in “YAP1 (% UTC)” value: 54 % UTC for the first, 24 % UTC for the second.

Same assay, conditions: Table 26; Yap1 mRNA by 3-10-3 cEt gapmers targeting SEQ ID NO.: 1, and 2; percent of untreated control

Going from “1074796 (k[5mC]*kT*k[5mC]*d[5mC]*dA*dA*dA*dT*d[5mC]*dA*dA*dT*dG*kT*kG*k[5mC]; antisense) [compound 1074796]” to “1075692 (kT*kA*kA*dG*dA*dA*d[5mC]*dA*d[5mC]*d[5mC]*dA*dT*dA*kG*k[5mC]*kA; antisense) [compound 1075692]”, the “YAP1 (% UTC)” value falls from 22 % UTC to 11 % UTC.

Same assay, conditions: Table 27; Yap1 mRNA by 3-10-3 cEt gapmers targeting SEQ ID NO.: 1, and 2; percent of untreated control

With “1076429 (k[5mC]*kA*kT*dT*dA*d[5mC]*dA*dA*dG*d[5mC]*dA*dT*dA*kG*kG*k[5mC]; antisense) [compound 1076429]” the “YAP1 (% UTC)” value was 26 % UTC.

Same assay, conditions: Table 28; Yap1 mRNA as percent of untreated control; 3-10-3 cEt gapmers targeting SEQ ID NO.: 1, and 2

Going from “1074350 (antisense kT*kA*kG*dT*d[5mC]*d[5mC]*dA*d[5mC]*dT*dG*dT*d[5mC]*dT*kG*kT*kA) [compound 1074350]” to “1075630 (antisense kT*kA*kT*dA*dA*d[5mC]*d[5mC]*dA*dA*dA*dT*dG*d[5mC]*k[5mC]*kG*k[5mC]) [compound 1075630]”, the “YAP1 (% UTC)” value rises from 14 % UTC to 60 % UTC.

Compared with “1074894 (antisense kT*kG*k[5mC]*dT*dG*dA*dA*dG*dT*dT*dT*dA*dG*k[5mC]*k[5mC]*kT) [compound 1074894]”, “1075470 (antisense kG*k[5mC]*k[5mC]*dA*dA*dT*dA*dA*dG*dT*dT*dA*dT*k[5mC]*kA*kA) [compound 1075470]” is lower in “YAP1 (% UTC)” value: 79 % UTC for the first, 50 % UTC for the second.

Going from “1074990 (antisense kG*k[5mC]*k[5mC]*dG*d[5mC]*dA*dA*dA*dG*dG*dA*dA*dA*kG*kG*kG) [compound 1074990]” to “1075278 (antisense kT*kA*kT*dA*d[5mC]*dT*dA*dA*d[5mC]*dA*dT*dT*d[5mC]*kA*k[5mC]*kG) [compound 1075278]”, the “YAP1 (% UTC)” value falls from 108 % UTC to 48 % UTC.

Same assay, conditions: Table 29; Yap1 mRNA as percent of untreated control; 3-10-3 cEt gapmers targeting SEQ ID NO.: 1, and 2

First: 1074767 (kT*kT*kA*dT*d[5mC]*d[5mC]*d[5mC]*dA*dA*dT*dG*d[5mC]*dT*kA*k[5mC]*k[5mC]; antisense) [compound 1074767]
Second: 1075823 (kT*kA*kT*dT*dA*dG*dA*dG*dG*dT*dT*d[5mC]*d[5mC]*kA*kG*kG; antisense) [compound 1075823]
The “YAP1 (% UTC)” value of the first is lower: 12 % UTC for the first, 30 % UTC for the second.

Going from “1074127 (k[5mC]*k[5mC]*kA*d[5mC]*dT*dG*dG*dT*d[5mC]*dT*dG*dG*d[5mC]*kG*kG*k[5mC]; antisense) [compound 1074127]” to “1075407 (antisense kG*kA*kA*d[5mC]*dT*dA*dT*dA*dT*dA*dA*d[5mC]*d[5mC]*kT*kG*kA) [compound 1075407]”, the “YAP1 (% UTC)” value falls from 57 % UTC to 32 % UTC.

“1076047 (kA*k[5mC]*kT*dT*dA*dA*dA*dT*dG*dG*dT*dG*d[5mC]*kA*kA*kT; antisense) [compound 1076047]” and “1075951 (antisense k[5mC]*kA*k[5mC]*dG*dG*dA*dA*dG*dA*dG*d[5mC]*dT*dT*kG*k[5mC]*kA) [compound 1075951]” are the same in “YAP1 (% UTC)” value: 34 % UTC for the first, 34 % UTC for the second.

With “1074703 (antisense k[5mC]*kG*kG*dT*dG*dT*dA*dA*dG*dA*d[5mC]*dA*dA*kG*kT*k[5mC]) [compound 1074703]” the “YAP1 (% UTC)” value was 16 % UTC.

Same assay, conditions: Table 34; Yap1 mRNA as percent of untreated control; 3-10-3 cEt gapmers targeting SEQ ID NO: 1 and 2; single dose

First: 1075028 (antisense kA*kA*kA*dA*dA*dT*d[5mC]*dA*dA*dG*d[5mC]*d[5mC]*d[5mC]*kT*k[5mC]*kG) [compound 1075028]
Second: 1076116 (kG*kA*kA*dA*dA*dT*dA*dG*d[5mC]*d[5mC]*d[5mC]*dA*dT*kT*kA*kG; antisense) [compound 1076116]
The “YAP1 (% UTC)” value of the first is higher: 103 % UTC for the first, 25 % UTC for the second.

Going from “1075860 (antisense kA*kA*k[5mC]*dT*dA*dT*dA*dA*dG*d[5mC]*dT*dA*dT*kG*kT*kG) [compound 1075860]” to “1075476 (kT*k[5mC]*kT*dT*dA*dT*d[5mC]*d[5mC]*dT*dA*d[5mC]*dA*dG*k[5mC]*kT*kT; antisense) [compound 1075476]”, the “YAP1 (% UTC)” value rises from 73 % UTC to 75 % UTC.

“1074772 (kA*kG*kT*dT*dA*dA*dA*dA*dT*d[5mC]*dT*dT*dA*kT*k[5mC]*k[5mC]; antisense) [compound 1074772]” was tested, and the “YAP1 (% UTC)” value was 80 % UTC.

Same assay, conditions: Table 35; Yap1 mRNA as percent of untreated control; 3-10-3 cEt gapmers targeting SEQ ID NO: 1 and 2; single dose

Going from “1075477 (k[5mC]*kT*kT*dT*dA*dT*d[5mC]*dT*d[5mC]*dA*d[5mC]*dT*dA*kG*k[5mC]*kT; antisense) [compound 1075477]” to “1074965 (antisense kG*kT*kG*dT*dT*dT*dA*dG*dG*d[5mC]*dA*dA*dG*k[5mC]*kA*kG) [compound 1074965]”, the “YAP1 (% UTC)” value falls from 86 % UTC to 20 % UTC.
